In PubChem BioAssay (NCI):
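Following 48 hours of exposure in 96-well plates, responses at five concentrations were used to interpolate endpoints linearly. Here, GI50 denotes the concentration required for 50% inhibition of growth. TGI: total growth inhibition.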

Columns and labels:
Assay in all cases: DTP human tumour cell line panel, 48 h
IGROV1 ovarian = system: IGROV1 ovarian
M14 melanoma = system: M14 melanoma
OVCAR-4 ovarian = system: OVCAR-4 ovarian
K-562 leukemia = system: K-562 leukemia
MALME-3M melanoma = system: MALME-3M melanoma
OVCAR-8 ovarian = system: OVCAR-8 ovarian
HCT-116 colon = system: HCT-116 colon
SNB-75 CNS = system: SNB-75 CNS
SK-MEL-5 melanoma = system: SK-MEL-5 melanoma
SR leukemia = system: SR leukemia

Structure (SMILES)	TGI (IGROV1 ovarian) [µM]	TGI (M14 melanoma) [µM]	TGI (OVCAR-4 ovarian) [µM]	TGI (K-562 leukemia) [µM]	TGI (MALME-3M melanoma) [µM]	TGI (OVCAR-8 ovarian) [µM]	TGI (HCT-116 colon) [µM]	TGI (SNB-75 CNS) [µM]	TGI (SK-MEL-5 melanoma) [µM]	GI50 (IGROV1 ovarian) [µM]	GI50 (SR leukemia) [µM]	GI50 (M14 melanoma) [µM]	GI50 (OVCAR-4 ovarian) [µM]	GI50 (MALME-3M melanoma) [µM]	GI50 (SK-MEL-5 melanoma) [µM]	GI50 (OVCAR-8 ovarian) [µM]	GI50 (HCT-116 colon) [µM]	GI50 (SNB-75 CNS) [µM]	GI50 (K-562 leukemia) [µM]	TGI (SR leukemia) [µM]
NC(=S)N/N=C1\CCCC\C1=C/c1ccccc1	71.5	> 100	> 100	> 100	> 100	> 100	> 100	> 100	–	–	–	–	–	–	–	–	–	–	–	–
COc1ccc(/C=C/c2cnccn2)cc1OC	> 10	> 10	> 10	–	> 10	> 10	> 10	> 10	> 10	–	–	–	–	–	–	–	–	–	–	–
Cc1ccc2[c](c1)[Sn]([c]1ccccc1)([c]1ccccc1)[c]1cc(C)ccc1N2C	> 100	> 100	> 100	–	90.7	> 100	> 100	> 100	> 100	58.7	0.116	80.5	41.6	31.8	33.2	57.3	20.9	> 100	–	–
COc1cc2c3c(n(CCCN(C)CCO)c(=O)c2cc1OC)-c1cc2c(cc1C3=O)OCO2	> 55.6	> 68.9	> 72.4	54.7	> 100	> 78.8	30.7	> 58.5	33.5	2.47	–	1.48	30.9	> 55.7	4.77	13.9	1.9	–	0.439	–
Cn1cc(S(=O)(=O)N2CCC3=Cc4c(cnn4-c4ccc(F)cc4)C[C@]3(C(=O)c3cc(C(F)(F)F)ccn3)C2)cn1	> 100	> 100	> 100	> 100	> 100	> 100	> 100	> 100	> 100	23.3	–	> 100	> 100	> 100	57.7	> 100	11.1	> 100	> 100	–
COc1cc2c(cc1OC)C1Cc3cc(OC)c(OC)cc3N1CC2 (centres undefined)	> 100	53.4	57.7	> 100	54.4	> 100	> 100	56.2	–	–	–	–	–	–	–	–	–	–	–	> 100
Cn1cc(-c2csc(-c3cn(C)c4ccc(F)cc34)n2)c2cnccc21	3.63	3.21	3.16	3.78	3.57	3.93	3.06	2.74	3.05	1.96	–	1.72	1.7	1.97	1.66	2.02	1.66	1.4	1.7	–
COc1cc(/C=C/C(=O)C(C(=O)/C=C/c2ccc(OC(=O)CCNC34CC5CC(CC(C5)C3)C4)c(OC)c2)C(=O)CCNC23CC4CC(CC(C4)C2)C3)ccc1OC(=O)CCNC12CC3CC(CC(C3)C1)C2 (centres undefined)	–	13.9	57.1	4.97	9.92	5.18	10.7	33.3	13.4	–	–	3.51	8.89	2.44	3.36	1.62	2.94	4.86	1.99	–
Oc1ccc(/C=C/c2cc(O)cc3c2C(c2cc(O)cc(O)c2)C(c2ccc(O)c(O)c2)O3)cc1 (centres undefined)	> 100	> 100	41.2	–	80.6	68.2	> 100	> 100	34.7	–	–	–	–	–	–	–	–	–	–	55.4
CN(C)CCNc1nc2ccccc2c2c(=O)c3cc(F)ccc3sc12	2.99	3.55	–	4.84	3.15	–	3.08	2.8	3.08	1.53	3.27	1.9	–	1.65	1.7	–	1.58	1.45	2	> 100
O=C1/C(=C/N2N=C(c3ccc4ccccc4c3)CC2c2ccccc2O)SC(=S)N1c1cccnc1 (centres undefined)	> 100	> 100	> 100	> 100	> 100	> 100	> 100	13.1	39	1.47	–	0.84	4.41	5.2	3.01	2.36	0.33	0.987	0.341	–
COc1ccc2c(c1)C(C)Cc1c(ncnc1-n1cnc3ccccc31)N2C (centres undefined)	29.1	12.7	30.6	> 100	–	87.4	12.7	–	1.89	1.41	0.33	0.313	1.25	–	0.368	0.959	0.494	–	0.384	28
CCc1cccc(C)c1NC(=O)CC1C(=O)Nc2ccccc2S1=O (centres undefined)	–	> 100	> 100	> 100	> 100	> 100	> 100	> 100	–	–	–	–	–	–	–	–	–	–	–	> 100
O=C(N/N=C/c1ccc(O)cc1O)c1cccnc1	23.6	19.6	11.9	–	39.2	96.3	> 100	26.1	27.6	0.776	3.21	2.8	0.692	5.16	3.3	2.5	0.876	1.15	–	> 100
CC(=O)[CH-]C(=O)c1ccccc1.CC(=O)[CH-]C(=O)c1ccccc1.O=S(=O)([O-])c1cc([O-])c2c([O-])cc(S(=O)(=O)[O-])cc2c1.[Na+].[Ti+4]	> 100	> 100	> 100	> 100	> 100	> 100	> 100	87.5	> 100	> 100	–	> 100	68.6	84.5	> 100	> 100	> 100	29.1	> 100	–
